± gives the expanded uncertainty stated by the source.
How the values were obtained:
[1] = xn = mol fraction of the nth substance listed; settings: 101.32 kPa, Liquid, Vibrating tube method
[2] = excess molar enthalpy (molar enthalpy of mixing); xn = mol fraction of the nth substance listed; settings: 101 kPa, Liquid, Calvet calorimetry

CCCCCCCCCC [decane] + CCOC(C)=O
mass density ([1]; 291.15 K, x2 = 0): 731.22 ± 0.57 kg/m3
mass density ([1]; 291.15 K, x2 = 0.0174): 732.37 ± 0.64 kg/m3
mass density ([1]; 291.15 K, x2 = 0.0789): 736.87 ± 0.65 kg/m3
mass density ([1]; 291.15 K, x2 = 0.1457): 742.14 ± 0.67 kg/m3
mass density ([1]; 291.15 K, x2 = 0.2494): 751.47 ± 0.7 kg/m3
mass density ([1]; 291.15 K, x2 = 0.3508): 762.27 ± 0.75 kg/m3
mass density ([1]; 291.15 K, x2 = 0.4382): 773.02 ± 0.8 kg/m3
mass density ([1]; 291.15 K, x2 = 0.5149): 783.83 ± 0.85 kg/m3
mass density ([1]; 291.15 K, x2 = 0.5781): 793.79 ± 0.91 kg/m3
mass density ([1]; 291.15 K, x2 = 0.6446): 805.51 ± 0.98 kg/m3
mass density ([1]; 291.15 K, x2 = 0.7051): 817.52 ± 1.1 kg/m3
mass density ([1]; 291.15 K, x2 = 0.7648): 830.7 ± 1.1 kg/m3
mass density ([1]; 291.15 K, x2 = 0.8069): 841.06 ± 1.2 kg/m3
mass density ([1]; 291.15 K, x2 = 0.8553): 854.05 ± 1.3 kg/m3
mass density ([1]; 291.15 K, x2 = 0.8914): 864.68 ± 1.4 kg/m3
mass density ([1]; 291.15 K, x2 = 0.9318): 877.69 ± 1.5 kg/m3
mass density ([1]; 291.15 K, x2 = 0.9794): 894.7 ± 1.6 kg/m3
mass density ([1]; 298.15 K, x2 = 0): 726.2 ± 0.56 kg/m3
mass density ([1]; 298.15 K, x2 = 0.0319): 728.3 ± 0.64 kg/m3
mass density ([1]; 298.15 K, x2 = 0.1165): 734.6 ± 0.65 kg/m3
mass density ([1]; 298.15 K, x2 = 0.2048): 741.9 ± 0.67 kg/m3
mass density ([1]; 298.15 K, x2 = 0.2835): 749.3 ± 0.71 kg/m3
mass density ([1]; 298.15 K, x2 = 0.3475): 756.1 ± 0.74 kg/m3
mass density ([1]; 298.15 K, x2 = 0.4252): 765.35 ± 0.78 kg/m3
mass density ([1]; 298.15 K, x2 = 0.4873): 773.59 ± 0.82 kg/m3
mass density ([1]; 298.15 K, x2 = 0.5417): 781.58 ± 0.87 kg/m3
mass density ([1]; 298.15 K, x2 = 0.6031): 791.53 ± 0.92 kg/m3
mass density ([1]; 298.15 K, x2 = 0.6469): 799.34 ± 0.98 kg/m3
mass density ([1]; 298.15 K, x2 = 0.6957): 808.8 ± 1 kg/m3
mass density ([1]; 298.15 K, x2 = 0.7407): 818.3 ± 1.1 kg/m3
mass density ([1]; 298.15 K, x2 = 0.78): 827.2 ± 1.1 kg/m3
mass density ([1]; 298.15 K, x2 = 0.8179): 836.5 ± 1.2 kg/m3
mass density ([1]; 298.15 K, x2 = 0.8516): 845.4 ± 1.3 kg/m3
mass density ([1]; 298.15 K, x2 = 0.8865): 855.4 ± 1.4 kg/m3
mass density ([1]; 298.15 K, x2 = 0.9207): 866.1 ± 1.5 kg/m3
mass density ([1]; 298.15 K, x2 = 0.9604): 879.5 ± 1.6 kg/m3
mass density ([1]; 318.15 K, x2 = 0): 710.9 ± 0.55 kg/m3
mass density ([1]; 318.15 K, x2 = 0.0117): 711.52 ± 0.59 kg/m3
mass density ([1]; 318.15 K, x2 = 0.0758): 715.68 ± 0.62 kg/m3
mass density ([1]; 318.15 K, x2 = 0.1539): 721.34 ± 0.64 kg/m3
mass density ([1]; 318.15 K, x2 = 0.2456): 728.94 ± 0.66 kg/m3
mass density ([1]; 318.15 K, x2 = 0.2848): 732.56 ± 0.69 kg/m3
mass density ([1]; 318.15 K, x2 = 0.3468): 738.71 ± 0.7 kg/m3
mass density ([1]; 318.15 K, x2 = 0.3714): 741.31 ± 0.73 kg/m3
mass density ([1]; 318.15 K, x2 = 0.4391): 749.04 ± 0.76 kg/m3
mass density ([1]; 318.15 K, x2 = 0.516): 758.96 ± 0.78 kg/m3
mass density ([1]; 318.15 K, x2 = 0.5314): 761.13 ± 0.84 kg/m3
mass density ([1]; 318.15 K, x2 = 0.5878): 769.54 ± 0.87 kg/m3
mass density ([1]; 318.15 K, x2 = 0.6448): 778.92 ± 0.92 kg/m3
mass density ([1]; 318.15 K, x2 = 0.694): 787.77 ± 0.96 kg/m3
mass density ([1]; 318.15 K, x2 = 0.7127): 791.38 ± 1 kg/m3
mass density ([1]; 318.15 K, x2 = 0.7829): 806.2 ± 1.1 kg/m3
mass density ([1]; 318.15 K, x2 = 0.8204): 815 ± 1.2 kg/m3
mass density ([1]; 318.15 K, x2 = 0.8538): 823.5 ± 1.2 kg/m3
mass density ([1]; 318.15 K, x2 = 0.8886): 833 ± 1.3 kg/m3
mass density ([1]; 318.15 K, x2 = 0.9198): 842.3 ± 1.4 kg/m3
mass density ([1]; 318.15 K, x2 = 0.9553): 853.8 ± 1.5 kg/m3
mass density ([1]; 328.15 K, x2 = 0): 703.34 ± 0.55 kg/m3
mass density ([1]; 328.15 K, x2 = 0.0347): 705.37 ± 0.61 kg/m3
mass density ([1]; 328.15 K, x2 = 0.1351): 711.99 ± 0.62 kg/m3
mass density ([1]; 328.15 K, x2 = 0.234): 719.58 ± 0.65 kg/m3
mass density ([1]; 328.15 K, x2 = 0.3322): 728.47 ± 0.69 kg/m3
mass density ([1]; 328.15 K, x2 = 0.4166): 737.37 ± 0.73 kg/m3
mass density ([1]; 328.15 K, x2 = 0.4853): 745.64 ± 0.77 kg/m3
mass density ([1]; 328.15 K, x2 = 0.5551): 755.09 ± 0.82 kg/m3
mass density ([1]; 328.15 K, x2 = 0.6186): 764.72 ± 0.87 kg/m3
mass density ([1]; 328.15 K, x2 = 0.6774): 774.65 ± 0.93 kg/m3
mass density ([1]; 328.15 K, x2 = 0.7271): 783.92 ± 0.99 kg/m3
mass density ([1]; 328.15 K, x2 = 0.7735): 793.4 ± 1.1 kg/m3
mass density ([1]; 328.15 K, x2 = 0.8619): 814.12 ± 1.2 kg/m3
mass density ([1]; 328.15 K, x2 = 0.9041): 825.66 ± 1.3 kg/m3
mass density ([1]; 328.15 K, x2 = 0.9511): 840.13 ± 1.5 kg/m3
excess molar enthalpy ([2]; 291.15 K, x2 = 0.0986): 0.146 ± 0.00311 kcal/mol
excess molar enthalpy ([2]; 291.15 K, x2 = 0.1909): 0.246 ± 0.00526 kcal/mol
excess molar enthalpy ([2]; 291.15 K, x2 = 0.2646): 0.318 ± 0.00669 kcal/mol
excess molar enthalpy ([2]; 291.15 K, x2 = 0.3377): 0.372 ± 0.00789 kcal/mol
excess molar enthalpy ([2]; 291.15 K, x2 = 0.4032): 0.404 ± 0.0086 kcal/mol
excess molar enthalpy ([2]; 291.15 K, x2 = 0.4608): 0.422 ± 0.00908 kcal/mol
excess molar enthalpy ([2]; 291.15 K, x2 = 0.5067): 0.429 ± 0.00908 kcal/mol
excess molar enthalpy ([2]; 291.15 K, x2 = 0.5523): 0.433 ± 0.00932 kcal/mol
excess molar enthalpy ([2]; 291.15 K, x2 = 0.5924): 0.428 ± 0.00908 kcal/mol
excess molar enthalpy ([2]; 291.15 K, x2 = 0.6147): 0.421 ± 0.00908 kcal/mol
excess molar enthalpy ([2]; 291.15 K, x2 = 0.6541): 0.409 ± 0.00884 kcal/mol
excess molar enthalpy ([2]; 291.15 K, x2 = 0.7009): 0.389 ± 0.00837 kcal/mol
excess molar enthalpy ([2]; 291.15 K, x2 = 0.7512): 0.357 ± 0.00765 kcal/mol
excess molar enthalpy ([2]; 291.15 K, x2 = 0.7956): 0.317 ± 0.00669 kcal/mol
excess molar enthalpy ([2]; 291.15 K, x2 = 0.8448): 0.268 ± 0.00574 kcal/mol
excess molar enthalpy ([2]; 291.15 K, x2 = 0.8927): 0.208 ± 0.00454 kcal/mol
excess molar enthalpy ([2]; 291.15 K, x2 = 0.9375): 0.14 ± 0.00311 kcal/mol
excess molar enthalpy ([2]; 291.15 K, x2 = 0.9684): 0.0715 ± 0.00191 kcal/mol
excess molar enthalpy ([2]; 298.15 K, x2 = 0.0884): 0.119 ± 0.00263 kcal/mol
excess molar enthalpy ([2]; 298.15 K, x2 = 0.177): 0.216 ± 0.00454 kcal/mol
excess molar enthalpy ([2]; 298.15 K, x2 = 0.2587): 0.289 ± 0.00621 kcal/mol
excess molar enthalpy ([2]; 298.15 K, x2 = 0.3362): 0.345 ± 0.00741 kcal/mol
excess molar enthalpy ([2]; 298.15 K, x2 = 0.4005): 0.377 ± 0.00813 kcal/mol
excess molar enthalpy ([2]; 298.15 K, x2 = 0.4566): 0.398 ± 0.0086 kcal/mol
excess molar enthalpy ([2]; 298.15 K, x2 = 0.5101): 0.408 ± 0.00884 kcal/mol
excess molar enthalpy ([2]; 298.15 K, x2 = 0.5578): 0.408 ± 0.0086 kcal/mol
excess molar enthalpy ([2]; 298.15 K, x2 = 0.5984): 0.402 ± 0.0086 kcal/mol
excess molar enthalpy ([2]; 298.15 K, x2 = 0.6297): 0.395 ± 0.00837 kcal/mol
excess molar enthalpy ([2]; 298.15 K, x2 = 0.6727): 0.381 ± 0.00813 kcal/mol
excess molar enthalpy ([2]; 298.15 K, x2 = 0.7191): 0.357 ± 0.00765 kcal/mol
excess molar enthalpy ([2]; 298.15 K, x2 = 0.7636): 0.329 ± 0.00693 kcal/mol
excess molar enthalpy ([2]; 298.15 K, x2 = 0.8098): 0.289 ± 0.00621 kcal/mol
excess molar enthalpy ([2]; 298.15 K, x2 = 0.8591): 0.24 ± 0.00526 kcal/mol
excess molar enthalpy ([2]; 298.15 K, x2 = 0.9024): 0.185 ± 0.00406 kcal/mol
excess molar enthalpy ([2]; 298.15 K, x2 = 0.9385): 0.124 ± 0.00287 kcal/mol
excess molar enthalpy ([2]; 298.15 K, x2 = 0.9744): 0.0595 ± 0.00143 kcal/mol
excess molar enthalpy ([2]; 318.15 K, x2 = 0.0892): 0.136 ± 0.00287 kcal/mol
excess molar enthalpy ([2]; 318.15 K, x2 = 0.172): 0.226 ± 0.00478 kcal/mol
excess molar enthalpy ([2]; 318.15 K, x2 = 0.2474): 0.3 ± 0.00645 kcal/mol
excess molar enthalpy ([2]; 318.15 K, x2 = 0.3208): 0.354 ± 0.00765 kcal/mol
excess molar enthalpy ([2]; 318.15 K, x2 = 0.3848): 0.388 ± 0.00837 kcal/mol
excess molar enthalpy ([2]; 318.15 K, x2 = 0.4412): 0.409 ± 0.00884 kcal/mol
excess molar enthalpy ([2]; 318.15 K, x2 = 0.4941): 0.42 ± 0.00884 kcal/mol
excess molar enthalpy ([2]; 318.15 K, x2 = 0.5409): 0.421 ± 0.00908 kcal/mol
excess molar enthalpy ([2]; 318.15 K, x2 = 0.5801): 0.417 ± 0.00884 kcal/mol
excess molar enthalpy ([2]; 318.15 K, x2 = 0.5985): 0.412 ± 0.00884 kcal/mol
excess molar enthalpy ([2]; 318.15 K, x2 = 0.6567): 0.391 ± 0.00837 kcal/mol
excess molar enthalpy ([2]; 318.15 K, x2 = 0.6942): 0.374 ± 0.00789 kcal/mol
excess molar enthalpy ([2]; 318.15 K, x2 = 0.7429): 0.344 ± 0.00741 kcal/mol
excess molar enthalpy ([2]; 318.15 K, x2 = 0.7959): 0.303 ± 0.00645 kcal/mol
excess molar enthalpy ([2]; 318.15 K, x2 = 0.8499): 0.249 ± 0.00526 kcal/mol
excess molar enthalpy ([2]; 318.15 K, x2 = 0.9018): 0.179 ± 0.00382 kcal/mol
excess molar enthalpy ([2]; 318.15 K, x2 = 0.9554): 0.0973 ± 0.00215 kcal/mol

From the NIST ThermoML archive (doi:10.1021/je100832h)
